Measurements: ChEMBL document CHEMBL4507291 (2021)

Experiments:
[1] = target: T1, Serine/threonine-protein kinase BRSK1 (Homo sapiens) (UniProt Q8TDC3)
T1 sequence (whole entry): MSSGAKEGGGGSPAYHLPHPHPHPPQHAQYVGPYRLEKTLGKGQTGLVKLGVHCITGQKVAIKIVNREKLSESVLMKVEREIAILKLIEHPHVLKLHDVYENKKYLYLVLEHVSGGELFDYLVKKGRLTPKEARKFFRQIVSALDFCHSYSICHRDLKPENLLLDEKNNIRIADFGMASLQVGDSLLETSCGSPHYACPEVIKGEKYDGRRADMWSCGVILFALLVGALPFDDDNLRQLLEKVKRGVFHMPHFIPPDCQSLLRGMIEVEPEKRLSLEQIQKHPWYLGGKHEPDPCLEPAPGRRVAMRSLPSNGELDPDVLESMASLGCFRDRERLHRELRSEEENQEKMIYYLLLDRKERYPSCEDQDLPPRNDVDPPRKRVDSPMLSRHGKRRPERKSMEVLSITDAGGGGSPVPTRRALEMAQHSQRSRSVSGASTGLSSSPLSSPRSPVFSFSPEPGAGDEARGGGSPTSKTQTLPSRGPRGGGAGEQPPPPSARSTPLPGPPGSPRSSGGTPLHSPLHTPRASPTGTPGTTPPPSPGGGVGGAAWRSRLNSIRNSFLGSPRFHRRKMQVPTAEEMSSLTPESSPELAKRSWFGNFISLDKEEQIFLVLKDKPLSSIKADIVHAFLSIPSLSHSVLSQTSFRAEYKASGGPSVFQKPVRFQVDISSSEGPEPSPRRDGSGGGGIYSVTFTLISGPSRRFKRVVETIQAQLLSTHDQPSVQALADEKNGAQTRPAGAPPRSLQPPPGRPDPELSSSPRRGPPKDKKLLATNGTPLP

[2] = target: Cyclin-dependent kinase 2 (Homo sapiens) (UniProt P24941)
[3] = target: Macrophage colony-stimulating factor 1 receptor (Homo sapiens) (UniProt P07333)
Chain of Macrophage colony-stimulating factor 1 receptor (Homo sapiens) (P07333 whole entry): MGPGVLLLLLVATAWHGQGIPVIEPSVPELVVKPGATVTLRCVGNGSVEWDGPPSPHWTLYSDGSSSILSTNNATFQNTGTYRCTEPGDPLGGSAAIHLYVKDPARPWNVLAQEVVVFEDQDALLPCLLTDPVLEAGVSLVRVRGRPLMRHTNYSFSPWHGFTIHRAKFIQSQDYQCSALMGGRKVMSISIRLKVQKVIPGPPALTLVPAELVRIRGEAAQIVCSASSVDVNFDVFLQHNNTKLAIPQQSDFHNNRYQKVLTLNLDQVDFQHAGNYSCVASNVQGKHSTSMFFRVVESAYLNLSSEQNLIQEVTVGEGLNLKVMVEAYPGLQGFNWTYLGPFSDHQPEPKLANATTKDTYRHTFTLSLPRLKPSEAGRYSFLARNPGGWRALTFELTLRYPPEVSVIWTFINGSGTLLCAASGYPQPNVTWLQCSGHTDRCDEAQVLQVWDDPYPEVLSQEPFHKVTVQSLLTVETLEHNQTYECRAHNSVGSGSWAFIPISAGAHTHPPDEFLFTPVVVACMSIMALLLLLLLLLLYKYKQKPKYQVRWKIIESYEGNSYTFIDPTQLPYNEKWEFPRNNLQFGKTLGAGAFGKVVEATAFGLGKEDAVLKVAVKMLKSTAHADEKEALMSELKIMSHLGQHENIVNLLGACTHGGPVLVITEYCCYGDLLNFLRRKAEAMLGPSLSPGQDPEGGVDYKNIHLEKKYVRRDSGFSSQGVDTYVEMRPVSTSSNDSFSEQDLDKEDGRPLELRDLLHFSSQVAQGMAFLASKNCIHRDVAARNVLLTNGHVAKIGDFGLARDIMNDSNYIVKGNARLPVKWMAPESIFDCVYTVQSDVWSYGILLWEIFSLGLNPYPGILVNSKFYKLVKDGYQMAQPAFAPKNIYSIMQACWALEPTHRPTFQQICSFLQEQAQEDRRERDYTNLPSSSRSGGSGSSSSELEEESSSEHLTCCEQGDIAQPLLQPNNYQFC

[4] = tested on: Receptor-type tyrosine-protein kinase FLT3 (Homo sapiens), P36888 [UNDEFINED MUTATION]
[5] = target: Mitogen-activated protein kinase kinase kinase 15 (Homo sapiens) (UniProt Q6ZN16)
Chain of Mitogen-activated protein kinase kinase kinase 15 (Homo sapiens) (Q6ZN16 whole entry): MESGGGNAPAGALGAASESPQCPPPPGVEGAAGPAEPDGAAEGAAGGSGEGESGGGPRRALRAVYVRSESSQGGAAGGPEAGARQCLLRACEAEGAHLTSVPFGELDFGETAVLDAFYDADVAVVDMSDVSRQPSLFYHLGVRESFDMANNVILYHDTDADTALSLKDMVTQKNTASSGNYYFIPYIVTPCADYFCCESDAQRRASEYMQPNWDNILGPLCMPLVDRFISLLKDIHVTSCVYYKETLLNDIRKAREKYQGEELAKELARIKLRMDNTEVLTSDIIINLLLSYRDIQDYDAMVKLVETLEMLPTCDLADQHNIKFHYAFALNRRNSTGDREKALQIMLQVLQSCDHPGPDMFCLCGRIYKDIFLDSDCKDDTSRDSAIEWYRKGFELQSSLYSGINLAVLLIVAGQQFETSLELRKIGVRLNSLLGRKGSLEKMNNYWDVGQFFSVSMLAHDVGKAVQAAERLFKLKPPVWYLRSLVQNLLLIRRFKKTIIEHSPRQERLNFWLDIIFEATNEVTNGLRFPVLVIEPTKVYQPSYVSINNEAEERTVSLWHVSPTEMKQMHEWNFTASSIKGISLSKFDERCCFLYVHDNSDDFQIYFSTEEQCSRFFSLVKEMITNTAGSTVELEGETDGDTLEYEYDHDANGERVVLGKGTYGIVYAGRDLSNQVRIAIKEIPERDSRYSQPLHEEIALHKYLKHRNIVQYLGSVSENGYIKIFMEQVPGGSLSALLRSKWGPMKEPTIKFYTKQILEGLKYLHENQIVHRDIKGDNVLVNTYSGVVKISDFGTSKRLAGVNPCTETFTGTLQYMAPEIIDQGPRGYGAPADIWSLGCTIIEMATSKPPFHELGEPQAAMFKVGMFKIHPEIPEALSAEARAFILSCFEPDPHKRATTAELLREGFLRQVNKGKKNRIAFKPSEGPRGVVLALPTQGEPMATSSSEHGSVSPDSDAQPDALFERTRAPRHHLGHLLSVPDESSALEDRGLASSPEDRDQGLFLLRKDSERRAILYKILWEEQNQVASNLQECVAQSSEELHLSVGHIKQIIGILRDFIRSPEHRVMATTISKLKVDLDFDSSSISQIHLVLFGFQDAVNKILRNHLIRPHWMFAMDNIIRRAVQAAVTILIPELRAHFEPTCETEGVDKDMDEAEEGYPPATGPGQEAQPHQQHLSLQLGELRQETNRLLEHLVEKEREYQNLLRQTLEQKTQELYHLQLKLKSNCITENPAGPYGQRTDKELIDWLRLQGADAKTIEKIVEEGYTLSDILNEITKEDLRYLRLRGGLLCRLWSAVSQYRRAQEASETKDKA

[6] = target: Serine/threonine-protein kinase mTOR (Homo sapiens) (UniProt P42345)
[7] = target: Phosphorylase b kinase regulatory subunit alpha, liver isoform (Homo sapiens) (UniProt P46019)
Chain of Phosphorylase b kinase regulatory subunit alpha, liver isoform (Homo sapiens) (P46019 whole entry, canonical isoform): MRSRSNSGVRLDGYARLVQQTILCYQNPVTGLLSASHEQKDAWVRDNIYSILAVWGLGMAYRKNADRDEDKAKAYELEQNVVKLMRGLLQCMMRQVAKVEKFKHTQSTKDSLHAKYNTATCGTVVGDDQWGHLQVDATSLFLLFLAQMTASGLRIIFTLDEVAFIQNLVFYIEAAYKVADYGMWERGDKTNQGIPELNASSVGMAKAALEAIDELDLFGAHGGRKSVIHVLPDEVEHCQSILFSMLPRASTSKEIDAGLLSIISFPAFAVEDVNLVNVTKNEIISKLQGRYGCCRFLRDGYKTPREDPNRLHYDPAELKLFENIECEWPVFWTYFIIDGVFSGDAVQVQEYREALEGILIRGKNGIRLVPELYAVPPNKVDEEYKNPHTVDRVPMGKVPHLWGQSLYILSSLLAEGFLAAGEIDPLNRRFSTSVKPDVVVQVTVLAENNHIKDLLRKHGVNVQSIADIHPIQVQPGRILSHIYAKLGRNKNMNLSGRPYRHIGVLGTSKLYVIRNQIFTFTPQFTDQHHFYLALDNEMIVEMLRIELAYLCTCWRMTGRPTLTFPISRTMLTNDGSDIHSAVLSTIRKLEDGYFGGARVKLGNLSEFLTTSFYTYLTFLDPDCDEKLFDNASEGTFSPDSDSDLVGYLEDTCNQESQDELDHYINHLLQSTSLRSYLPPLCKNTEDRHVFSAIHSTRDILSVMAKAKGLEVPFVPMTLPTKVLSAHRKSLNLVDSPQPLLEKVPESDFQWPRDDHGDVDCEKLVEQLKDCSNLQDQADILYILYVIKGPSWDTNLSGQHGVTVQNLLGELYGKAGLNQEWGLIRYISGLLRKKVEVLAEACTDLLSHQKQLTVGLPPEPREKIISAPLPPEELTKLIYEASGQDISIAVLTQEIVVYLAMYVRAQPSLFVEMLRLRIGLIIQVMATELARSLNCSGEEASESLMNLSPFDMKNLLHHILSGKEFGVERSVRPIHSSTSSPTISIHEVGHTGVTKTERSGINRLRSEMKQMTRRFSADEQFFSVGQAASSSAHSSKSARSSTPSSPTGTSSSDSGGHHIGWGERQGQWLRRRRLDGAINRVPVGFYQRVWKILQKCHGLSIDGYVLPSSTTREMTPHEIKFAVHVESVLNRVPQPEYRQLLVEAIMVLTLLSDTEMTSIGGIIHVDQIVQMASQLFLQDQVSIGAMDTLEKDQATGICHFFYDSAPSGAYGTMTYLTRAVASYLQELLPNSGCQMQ

[8] = target: cAMP-dependent protein kinase catalytic subunit beta (Homo sapiens) (UniProt P22694)
[9] = target: T2, Serine/threonine-protein kinase D2 (Homo sapiens) (UniProt Q9BZL6)
T2 sequence (whole entry): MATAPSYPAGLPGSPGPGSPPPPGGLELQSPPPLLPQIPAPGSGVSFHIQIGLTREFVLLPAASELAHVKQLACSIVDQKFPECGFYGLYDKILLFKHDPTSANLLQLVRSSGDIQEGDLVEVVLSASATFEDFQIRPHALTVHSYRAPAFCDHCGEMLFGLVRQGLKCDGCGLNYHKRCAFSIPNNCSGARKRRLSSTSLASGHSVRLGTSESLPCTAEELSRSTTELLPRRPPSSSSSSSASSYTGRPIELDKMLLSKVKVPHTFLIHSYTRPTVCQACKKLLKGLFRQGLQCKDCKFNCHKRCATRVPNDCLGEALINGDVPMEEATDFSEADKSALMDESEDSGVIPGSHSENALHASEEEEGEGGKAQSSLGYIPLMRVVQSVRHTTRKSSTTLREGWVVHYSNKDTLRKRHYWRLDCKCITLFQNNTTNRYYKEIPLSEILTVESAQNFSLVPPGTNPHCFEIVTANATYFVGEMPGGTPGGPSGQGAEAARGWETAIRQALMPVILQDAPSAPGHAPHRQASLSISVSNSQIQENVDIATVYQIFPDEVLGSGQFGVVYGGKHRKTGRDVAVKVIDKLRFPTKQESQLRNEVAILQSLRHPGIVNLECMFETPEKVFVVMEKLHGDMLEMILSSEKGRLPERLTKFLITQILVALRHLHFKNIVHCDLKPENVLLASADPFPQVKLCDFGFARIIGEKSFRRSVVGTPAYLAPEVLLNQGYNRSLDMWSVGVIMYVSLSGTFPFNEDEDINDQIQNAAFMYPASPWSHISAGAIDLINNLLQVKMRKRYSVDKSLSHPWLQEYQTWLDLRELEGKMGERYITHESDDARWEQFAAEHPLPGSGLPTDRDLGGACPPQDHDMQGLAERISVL

[10] = target: T3, cGMP-dependent protein kinase 1 (Homo sapiens) (UniProt Q13976)
T3 sequence (whole entry): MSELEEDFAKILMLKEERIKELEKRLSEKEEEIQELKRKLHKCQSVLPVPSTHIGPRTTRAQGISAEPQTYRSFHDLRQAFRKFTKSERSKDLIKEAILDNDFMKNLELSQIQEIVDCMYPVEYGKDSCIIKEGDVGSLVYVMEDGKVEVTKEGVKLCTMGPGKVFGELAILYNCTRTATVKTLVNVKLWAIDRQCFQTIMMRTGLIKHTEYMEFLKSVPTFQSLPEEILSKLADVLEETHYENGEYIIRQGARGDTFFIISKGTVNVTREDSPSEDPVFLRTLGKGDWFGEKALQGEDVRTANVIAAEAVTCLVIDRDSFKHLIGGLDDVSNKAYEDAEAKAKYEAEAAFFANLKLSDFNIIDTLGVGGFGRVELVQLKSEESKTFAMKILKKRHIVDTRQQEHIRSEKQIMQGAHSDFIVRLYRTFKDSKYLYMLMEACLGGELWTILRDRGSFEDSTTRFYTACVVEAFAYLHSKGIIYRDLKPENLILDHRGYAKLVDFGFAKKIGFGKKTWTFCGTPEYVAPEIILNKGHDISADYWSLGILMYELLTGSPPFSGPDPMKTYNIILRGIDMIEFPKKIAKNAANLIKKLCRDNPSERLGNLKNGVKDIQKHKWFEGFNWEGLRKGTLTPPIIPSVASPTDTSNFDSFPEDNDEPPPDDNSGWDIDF

[11] = target: Phosphatidylinositol 3-kinase catalytic subunit type 3 (Homo sapiens) (UniProt Q8NEB9)
Chain of Phosphatidylinositol 3-kinase catalytic subunit type 3 (Homo sapiens) (Q8NEB9 whole entry): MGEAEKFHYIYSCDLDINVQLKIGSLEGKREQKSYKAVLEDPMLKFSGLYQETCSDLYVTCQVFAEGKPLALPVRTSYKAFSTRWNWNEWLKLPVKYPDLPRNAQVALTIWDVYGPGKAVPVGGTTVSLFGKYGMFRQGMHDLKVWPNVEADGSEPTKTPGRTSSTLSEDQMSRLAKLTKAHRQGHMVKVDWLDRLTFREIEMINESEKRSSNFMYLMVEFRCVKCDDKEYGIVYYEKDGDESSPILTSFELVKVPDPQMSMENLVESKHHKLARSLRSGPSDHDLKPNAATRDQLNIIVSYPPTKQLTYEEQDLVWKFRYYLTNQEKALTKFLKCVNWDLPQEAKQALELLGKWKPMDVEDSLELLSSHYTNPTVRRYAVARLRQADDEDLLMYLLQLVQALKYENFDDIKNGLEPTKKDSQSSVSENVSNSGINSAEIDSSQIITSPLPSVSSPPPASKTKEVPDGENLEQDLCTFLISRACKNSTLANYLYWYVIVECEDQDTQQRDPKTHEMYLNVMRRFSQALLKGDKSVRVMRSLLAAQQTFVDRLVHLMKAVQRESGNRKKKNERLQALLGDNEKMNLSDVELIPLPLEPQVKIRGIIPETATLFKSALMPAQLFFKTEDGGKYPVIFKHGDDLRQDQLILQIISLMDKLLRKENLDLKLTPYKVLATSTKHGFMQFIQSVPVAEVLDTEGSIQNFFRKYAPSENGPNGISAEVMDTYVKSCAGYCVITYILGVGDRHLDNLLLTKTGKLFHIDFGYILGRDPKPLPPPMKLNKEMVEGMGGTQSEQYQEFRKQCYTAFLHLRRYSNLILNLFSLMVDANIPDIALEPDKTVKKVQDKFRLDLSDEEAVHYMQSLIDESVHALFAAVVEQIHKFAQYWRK

[12] = target: Serine/threonine-protein kinase 32C (Homo sapiens) (UniProt Q86UX6)
Chain of Serine/threonine-protein kinase 32C (Homo sapiens) (Q86UX6 whole entry): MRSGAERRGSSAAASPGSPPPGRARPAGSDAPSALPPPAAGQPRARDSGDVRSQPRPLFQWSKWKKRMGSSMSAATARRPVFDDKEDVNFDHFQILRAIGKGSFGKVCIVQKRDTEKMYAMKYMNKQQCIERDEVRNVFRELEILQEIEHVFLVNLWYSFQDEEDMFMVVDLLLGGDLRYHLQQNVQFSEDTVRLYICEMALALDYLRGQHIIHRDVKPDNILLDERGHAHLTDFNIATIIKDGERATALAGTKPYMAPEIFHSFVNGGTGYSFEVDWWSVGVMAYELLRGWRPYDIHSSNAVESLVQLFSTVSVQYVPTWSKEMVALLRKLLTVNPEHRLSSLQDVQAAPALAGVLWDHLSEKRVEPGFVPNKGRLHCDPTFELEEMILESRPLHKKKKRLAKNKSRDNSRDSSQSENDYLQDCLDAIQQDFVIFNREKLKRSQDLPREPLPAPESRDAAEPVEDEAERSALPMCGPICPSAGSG

[13] = Compound concentration 1000.0 nM
[14] = Compound concentration 100.0 nM

Measured: residual activity

C[C@@H]1CN(c2cc(-c3nn(C)c4ccc(OC5(C)CC5)cc34)ncn2)C[C@H](C)O1 [MLi-2-NC]
inactive: [1]; [13] 97% | [2]; [13] 73% | [3]; [13] 55% | [4]; [13] 91% | [5]; [13] 80% | [6]; [13] 100% | [7]; [13] 100% | [8]; [13] 100% | [9]; [13] 90% | [10]; [13] 100% | [11]; [13] 86% | [12]; [13] 100%

C[C@@H]1CN(c2cc(-c3n[nH]c4ccc(OC5(C)CC5)cc34)ncn2)C[C@H](C)O1 [MLi-2]
inactive: [1]; [14] 96% | [2]; [14] 96% | [3]; [14] 84% | [4]; [14] 100% | [5]; [14] 67% | [6]; [14] 99% | [7]; [14] 91% | [8]; [14] 91% | [9]; [14] 100% | [10]; [14] 100% | [11]; [14] 100% | [12]; [14] 89%
